Legend:
[1] = system: BDNF (brain-derived neurotrophic factor); assay: Expression level of intracellular BDNF in SH-SY5Y cells (real-time quantitative PCR); format: cell-based; settings: 24 hours, mRNA vs GAPDH, untreated = 100
Protocol: (§1) Specifically, SH-SY5Y (neuroblastoma, Korean Cell Line Bank) cell line was seeded in a 6-well plate (FALCON) at 2×10^6 cells per well, cultured in an incubator containing 5% CO2 at 37° C. for 24 hours, then treated with 10 μg/ml of GCG, 10 μM of EGCG, 10 μg/ml of the existing green tea extract (GTE), 10 μg/ml of the novel substance 33, and 1 μM of 5-Aza-2′deoxycytidine (5-Aza, Sigma-aldrich) as a positive control group, and further cultured for 24 hours. Thereafter, the medium was entirely removed therefrom, and RNA was extracted therefrom using an RNA extraction kit (RNeasy mini kit, Quiagen). The extracted mRNA was quantitated using an ultraviolet detector (TECAN), and then 1 μg of mRNA was synthesized into a complementary DNA using a kit (SuperScript VILO cDNA Synthesis Kit, Thermofisher Scientific). Approximately 1 μg of the complementary DNA was taken and subjected to the real-time quantitative chain reaction using Taqman probe (Life technology) and Quantitect Probe PCR Kit (Quiagen). The expression levels of BDNF and DNMT1 were thus confirmed. At this time, the housekeeping gene, GAPDH, was used as the reference mRNA.

[2] = system: DNMT1 (DNA (cytosine-5)-methyltransferase 1); assay: Expression level of intracellular DNMT1 in SH-SY5Y cells (real-time quantitative PCR); format: cell-based; settings: 24 hours, mRNA vs GAPDH, untreated = 100
Protocol: as §1

beta amyloid (Aβ1-42) = biological target: T1, beta amyloid (Aβ1-42) (Homo sapiens, UniProt P05067); assay: Inhibition of beta amyloid aggregation, fluorescence analysis (ThioflavinT assay); format: biochemical; settings: compound 10 μM; for Increased RFU (amount of aggregated beta amyloid): Aβ1-42 0.1 mg/ml, thioflavinT, 37° C., 150 minutes; for Increased RFU (% of Pos. Cont.): Pos. Cont. (only beta amyloid, no compound) = 100%; for inhibition at 10 µM: aggregation in positive control group taken as 100%, read-out: inhibition of beta amyloid aggregation compared with the positive control group
T1 construct: beta amyloid (Aβ1-42, AnaSpec Inc., USA) was obtained; purchased AnaSpec Inc., USA
Protocol: The effect of kaempferol3-O-[2-O″-(E)-p-coumaroyl][beta-D-glucopyranosyl-(1→3)-O-alpha-L-rhamnopyranosyl-(1→6)-O-beta-D-glucopyranoside] on inhibition of beta amyloid aggregation was confirmed by the fluorescence analysis (ThioflavinT assay).
Specifically, beta amyloid (Aβ1-42, AnaSpec Inc., USA) was obtained and used at a concentration of 0.1 mg/ml and stored at −80° C. before use. Morin (20 μM), phenol red (20 μM), and kaempferol3-O-[2-O″-(E)-p-coumaroyl][beta-D-glucopyranosyl-(1→3)-O-alpha-L-rhamnopyranosyl-(1→6)-O-beta-D-glucopyranoside] (1 mg/ml) were respectively diluted with DMSO so as to be adjusted to the concentrations.
In order to specify the degree of inhibition of Aβ1-42 aggregation, each of the compounds prepared at the above concentrations was diluted with 50 μL of 0.01 M sodium phosphate buffer solution to have a concentration of 10 μM, then 40 μL of 0.1 mg/ml of Aβ1-42 was added thereto, and then 10 μl of 2 mM thioflavinT was added thereto, and fluorescence was measured using a fluorescence spectrometer (RF-5300PC, SHIMADZU CORPORATION, Japan) at 37° C. for 150 minutes at intervals of 5 minutes.

skin = assay: Human repeated insult patch tests (HRIPT), cumulative skin irritation; format: in vivo; parameters: key to skin reactivity (ICDRG criteria): −: Negative (no reaction); ±: Suspicious or mild erythema and the like; +: Weak reaction (not accompanied by small vesicula), erythema, papule; ++: Moderate reaction (with small vesicula), erythema, papule, vesicula; +++: Strong reaction, bulla reaction; settings: for Number of subjects showed ±, +, or ++ reactivity, 1st time: 1st patch; for Number of subjects showed ±, +, or ++ reactivity, 1st time / Number of subjects showed ±, +, or ++ reactivity, 2nd time / Number of subjects showed ±, +, or ++ reactivity, 3rd time / Number of subjects showed ±, +, or ++ reactivity, 4th time / Number of subjects showed ±, +, or ++ reactivity, 5th time / Number of subjects showed ±, +, or ++ reactivity, 6th time / Number of subjects showed ±, +, or ++ reactivity, 7 th time / Number of subjects showed ±, +, or ++ reactivity, 8 th time / Number of subjects showed ±, +, or ++ reactivity, 9th time: three lines per group (±, +, ++; lines not labelled); for Number of subjects showed ±, +, or ++ reactivity, 2nd time: 2nd patch; for Number of subjects showed ±, +, or ++ reactivity, 3rd time: 3rd patch; for Number of subjects showed ±, +, or ++ reactivity, 4th time: 4th patch; for Number of subjects showed ±, +, or ++ reactivity, 5th time: 5th patch; for Number of subjects showed ±, +, or ++ reactivity, 6th time: 6th patch; for Number of subjects showed ±, +, or ++ reactivity, 7 th time: 7th patch; for Number of subjects showed ±, +, or ++ reactivity, 8 th time: 8th patch; for Number of subjects showed ±, +, or ++ reactivity, 9th time: 9th patch; for Average reactivity: safe when less than 3
Protocol: Human repeated insult patch tests (HRIPT) were conducted to determine the cumulative skin irritation by kaempferol3-O-[2-O″-(E)-p-coumaroyl][beta-D-glucopyranosyl-(1→3)-O-alpha-L-rhamnopyranosyl-(1→6)-O-beta-D-glucopyranoside] and to calculate the concentration range in which kaempferol3-O-[2-O″-(E)-p-coumaroyl][beta-D-glucopyranosyl-(1→3)-O-alpha-L-rhamnopyranosyl-(1→6)-O-beta-D-glucopyranoside] can be used on the skin.
Specifically, 15 healthy adult subjects were randomly selected, the test compositions (compositions for skin containing an emulsifier, a stabilizer, purified water, and the like in addition to the compound) containing the compound at 0.5 wt %, 1 wt %, and 3 wt % were dropped by 20 μl per chamber (IQ chamber, Epitest Ltd, Finland), and the patch was applied to the right side of the upper back of the subject and then replaced with new one after 24 hours. The skin reaction was examined before and after the patch test while the patch test was conducted three times a week and thus nine times for three weeks in total in this manner, the skin reaction was observed until the 48th hour after removal of the final patch, and the average reactivity was determined.
The skin reaction was judged according to the criteria of the International Contact Dermatitis Research Group (ICDRG). In the above table, “Novel substance 33” denotes kaempferol3-O-[2-O″-(E)-p-coumaroyl][beta-D-glucopyranosyl-(1→3)-O-alpha-L-rhamnopyranosyl-(1→6)-O-beta-D-glucopyranoside].

T1 sequence (P05067 672-713 limits assumed): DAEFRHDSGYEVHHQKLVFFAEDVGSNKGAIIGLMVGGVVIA

Structure (SMILES): Nc1ncn([C@H]2C[C@H](O)[C@@H](CO)O2)c(=O)n1 [5-Aza-2′deoxycytidine, reference compound]
- Relative expression level of BDNF ([1]; 1 μM): 149%
- Relative expression level of DNMT1 ([2]; 1 μM): 65%

Structure (SMILES): O=c1c(O)c(-c2ccc(O)cc2O)oc2cc(O)cc(O)c12 [Morin]
- Increased RFU (amount of aggregated beta amyloid) (beta amyloid (Aβ1-42)): 11471 RFU
- Increased RFU (% of Pos. Cont.) (beta amyloid (Aβ1-42)): 78.6%
- inhibition at 10 µM (beta amyloid (Aβ1-42)): 21.4%

Structure (SMILES): O=S1(=O)OC(c2ccc(O)cc2)(c2ccc(O)cc2)c2ccccc21 [Phenol Red]
- Increased RFU (% of Pos. Cont.) (beta amyloid (Aβ1-42)): 93.6%
- inhibition at 10 µM (beta amyloid (Aβ1-42)): 6.4%

Structure (SMILES): CC1OC(OCC2OC(Oc3c(-c4ccc(O)cc4)oc4cc(O)cc(O)c4c3=O)C(OC(=O)/C=C/c3ccc(O)cc3)C(O)C2O)C(O)C(OC2OC(CO)C(O)C(O)C2O)C1O [Novel substance 33, kaempferol3-O-[2-O″-(E)-p-coumaroyl][beta-D-glucopyranosyl-(1→3)-O-alpha-L-rhamnopyranosyl-(1→6)-O-beta-D-glucopyranoside]]
- Relative expression level of BDNF ([1]; 10 μg/ml): 128%
- Number of subjects showed ±, +, or ++ reactivity, 1st time (skin; 0.5 wt %): 0 persons
- Number of subjects showed ±, +, or ++ reactivity, 2nd time (skin; 0.5 wt %): 0 persons
- Number of subjects showed ±, +, or ++ reactivity, 3rd time (skin; 0.5 wt %): 0 persons
- Number of subjects showed ±, +, or ++ reactivity, 4th time (skin; 0.5 wt %): 0 persons
- Number of subjects showed ±, +, or ++ reactivity, 5th time (skin; 0.5 wt %): 0 persons
- Number of subjects showed ±, +, or ++ reactivity, 6th time (skin; 0.5 wt %): 0 persons
- Number of subjects showed ±, +, or ++ reactivity, 7 th time (skin; 0.5 wt %): 0 persons
- Number of subjects showed ±, +, or ++ reactivity, 8 th time (skin; 0.5 wt %): 0 persons
- Number of subjects showed ±, +, or ++ reactivity, 9th time (skin; 0.5 wt %): 0 persons
- Average reactivity (skin; 0.5 wt %): 0
- Number of subjects showed ±, +, or ++ reactivity, 1st time (skin; 1 wt %): 0 persons
- Number of subjects showed ±, +, or ++ reactivity, 2nd time (skin; 1 wt %): 0 persons
- Number of subjects showed ±, +, or ++ reactivity, 3rd time (skin; 1 wt %): 0 persons
- Number of subjects showed ±, +, or ++ reactivity, 4th time (skin; 1 wt %): 0 persons
- Number of subjects showed ±, +, or ++ reactivity, 5th time (skin; 1 wt %): 0 persons
- Number of subjects showed ±, +, or ++ reactivity, 6th time (skin; 1 wt %): 0 persons
- Number of subjects showed ±, +, or ++ reactivity, 7 th time (skin; 1 wt %): 0 persons
- Number of subjects showed ±, +, or ++ reactivity, 8 th time (skin; 1 wt %): 0 persons
- Number of subjects showed ±, +, or ++ reactivity, 9th time (skin; 1 wt %): 0 persons
- Average reactivity (skin; 1 wt %): 0
- Number of subjects showed ±, +, or ++ reactivity, 1st time (skin; 3 wt %): 0 persons
- Number of subjects showed ±, +, or ++ reactivity, 2nd time (skin; 3 wt %): 0 persons
- Number of subjects showed ±, +, or ++ reactivity, 3rd time (skin; 3 wt %): 0 persons
- Number of subjects showed ±, +, or ++ reactivity, 4th time (skin; 3 wt %): 0 persons
- Number of subjects showed ±, +, or ++ reactivity, 5th time (skin; 3 wt %): 0 persons
- Number of subjects showed ±, +, or ++ reactivity, 6th time (skin; 3 wt %): 0 persons
- Number of subjects showed ±, +, or ++ reactivity, 7 th time (skin; 3 wt %): 0 persons
- Number of subjects showed ±, +, or ++ reactivity, 8 th time (skin; 3 wt %): 0 persons
- Number of subjects showed ±, +, or ++ reactivity, 9th time (skin; 3 wt %): 0 persons
- Average reactivity (skin; 3 wt %): 0
- skin reactivity (ICDRG criteria) (skin; all the content ranges (0.5, 1, 3 wt %), 15 subjects, 9 patches in 3 weeks): −
- Increased RFU (amount of aggregated beta amyloid) (beta amyloid (Aβ1-42)): 11235 RFU
- Increased RFU (% of Pos. Cont.) (beta amyloid (Aβ1-42)): 77.0%
- inhibition at 10 µM (beta amyloid (Aβ1-42)): 23%
- Relative expression level of DNMT1 ([2]; 10 μg/ml): 78%

Source: US20210322452A1, “COGNITIVE FUNCTION IMPROVING COMPOSITION COMPRISING NOVEL POST FERMENTED TEA-DERIVED KAEMPFEROL-BASED COMPOUND” (AMOREPACIFIC CORPORATION, priority 2016, published 2021)
